According to EP4545550B1, “INSECT NEUROPEPTIDES” (Solasta Bio Limited, priority 2023, dated 2025):

System: Spodoptera frugiperda
Test: Lepidoptera artificial diet assay
Assay type: in vivo
Conditions: unformulated peptide, final concentration 1x10^-4 M in artificial diet, one L1 larva per cell, n=10, after 168 hours; compared to the insecticide DDT and negative control vehicle
Text: Frontier Lepidoptera artificial diet was made up by preparing agar at 1% and then mixing it with artificial diet powder. Peptide solution was aliquoted in 10 cells and diet poured straight onto it. The final concentration of the peptide was 1x10^-4 M, and each peptide was aliquoted in 10 cells. Once the diet solidified and cooled down, one L1 larvae was infested in each cell. The trays were sealed with heat and let larva were allowed to develop for 168 hrs. Finally, pupation and mortality were scored for. Lepidoptera artificial diet assays were performed with SB-P-80, and compared to a negative control vehicle and the insecticide dichlorodiphenyltrichloroethane (DDT).

## H-NADEDQQQSVDFTPRL-NH2 [SB-P-80, [Hy]-NADEDQQQSVDFTPRL-[NH2]]
  activity (pupation and mortality scored): much higher activity
